PubChem BioAssay AID652041 (Broad Institute, 2013)
Activity calls are given as the source filed them.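 The calls were made as follows: active = fitted curve reaching a 35% signal drop at a concentration under 10 µM, within twice the top tested dose; inconclusive = no clear call, values can overlap the other calls; inactive = the rest, including activity opposite to the expected direction.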

Key:
[1] = antimalarial activity against intraerythrocytic HB3 parasites – HB3 strain, red blood cells, SYBR Green, cherry-picked, dose response (AID 652041);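 also: parasites exposed to compound for 72 hours before the DNA read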; details: P. falciparum HB3 in RBCs, SYBR Green DNA fluorescence; at 50 µM (top of the series)
[2] = test system: P. falciparum HB3 in RBCs, SYBR Green DNA fluorescence; experiment: as above

SMILES	activity change, negative = inhibition [1]	AC35 [2] [µM]
c1ccc(-c2ccc(OCCCn3cncn3)cc2)cc1	-10.3% (inactive)	–
COc1cccc(C(C)=C2SC(=S)NC2=O)c1	-7.61% (inactive)	–
CC12CCC(O)CC1=CCC1C2CCC2(C)C3=NN=CC3CC12 (stereo unspecified)	-17.5% (inactive)	–
CC1=NN(C(N)=S)C(=O)C1N=Nc1cccc(Cl)c1C (stereo unspecified)	-12.3% (inactive)	–
CCOC(=O)c1ccc(N2C(=O)CC(N3CCC(O)(c4ccc(Cl)cc4)CC3)C2=O)cc1 (stereo unspecified)	-5.74% (inactive)	–
COC(OC)c1ccc(C#N)c(SCc2ccccc2)n1	-17.5% (inactive)	–
Cc1nc2ccc(C(=O)NCc3ccc4c(c3)OCO4)cc2s1	-24.7% (inactive)	–
O=C1N(c2ccc(Cl)cc2)C(c2cccnc2)N2CCCN12 (stereo unspecified)	-10.4% (inactive)	–
CCCOc1ccc2ccccc2c1/C=C1\SC(=O)NC1=O	-14.8% (inactive)	–
CCCn1c2ccccc2c2cc(C(=O)O)ccc21	-6.37% (inactive)	–
CCCCn1c(=O)c(C(=O)NCc2ccncc2)c(O)c2ccccc21	-14% (inactive)	–
Nc1nc2sc3c(c2c(=O)s1)CCCC3	-20.8% (inactive)	–
c1ccc(Cn2cc(-c3cccnc3)cn2)cc1	-23.9% (inactive)	–
Cc1cc(NS(=O)(=O)c2ccc(C3CCCCC3)cc2)no1	0.534% (inactive)	–
CC(C)NC(=O)NC(=O)COC(=O)c1ccc([N+](=O)[O-])cc1Cl	-11.6% (inactive)	–
Oc1c(Br)cc(-c2ccccc2)cc1Br	-16% (inactive)	–
CCOc1ccc(N/N=C(/C#N)C(N)=O)cc1	-12.5% (inactive)	–
CCCOc1ccc(S(=O)(=O)n2cc(F)c(=O)[nH]c2=O)cc1	-21.3% (inactive)	–

SMILES	activity change, negative = inhibition [1]	AC35 [2] [µM]
COc1cc2c(c(OC)c1OC)-c1ccc(O)c(=O)cc1[C@@H](NC(C)=O)CC2	-18.5% (inactive)	–
O=C(O)c1c(NC(=O)N2CCCC2)sc2c1CCCC2	-0.929% (inactive)	–
CC(C)CSc1n[nH]c(=S)s1	1.38% (inactive)	–
CC1Oc2ccccc2C=C1/C=N/Nc1ccc(C(=O)O)cc1 (stereo unspecified)	-20.4% (inactive)	–
COc1ccc(N(C(=O)c2ccncc2)S(=O)(=O)c2ccccc2)cc1	-28% (inactive)	–
Clc1ccc(-c2n[nH]c3c2CCC3)cc1Cl	-19.3% (inactive)	–
CCCSC(=S)c1c(C)[nH]n(-c2ccccc2)c1=O	-14.2% (inactive)	–
Cc1cccc(C)c1N1C(=O)C2ON(c3ccccc3)C(c3ccncc3)C2C1=O (stereo unspecified)	-11.3% (inactive)	–
CCn1c(CNc2ccc(Cl)cc2)nnc1SCc1ccccc1	-25.3% (inactive)	–
CC1(C)CC(=O)C(N=Nc2ccc3ncsc3c2)=C(O)C1	-23.1% (inactive)	–
CC1CCN(c2ccc3c(c2)S(=O)(=O)c2ccccc2C3=O)CC1	-1.13% (inactive)	–
COc1ccc(N(C(=O)c2ccncc2)S(=O)(=O)c2ccc(F)cc2)cc1	-13.3% (inactive)	–
Cc1ccc(-c2c3c(nc4sc(C(N)=O)c(N)c24)CCCC3)o1	–	37.6
O=C(NCC1CC1(Cl)Cl)Nc1ccc(Cl)c(Cl)c1 (stereo unspecified)	–	5.48
Cc1ccc(NC(=S)c2nc3ccccc3[nH]2)c(C)c1	–	5.68
O=c1c(O)c(-c2ccccc2)oc2ccccc12	–	21.6
Cc1nn(CCC#N)c(N)c1C1(O)C(=O)Nc2c(Cl)cc(Cl)cc21 (stereo unspecified)	–	7.41
COc1ccc(Sc2nc(-c3ccccn3)ncc2OC)cc1	–	3.53
